# Measured values: patent US11999716B2, “WDR5 inhibitors and modulators” (priority 2018, dated 2024)
# System: MV4:11 human cancer cell lines
# Experiment: Cellular viability / anti-proliferative activity, CellTiter-Glo, 5 day protocol
# Type: cell-based
# Conditions: Homo sapiens, MV4-11, 120 h, MV4:11 cells; 5 day incubation; CellTiter-Glo; mean of minimum two replicates; read-out: GI50 on cellular proliferation of MV4:11 human cancer cell lines
# In short: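 Cells seeded at 200 per well (7200 cells/mL) with compound in 2-fold serial dilutions from 30 μM top (22 points), 0.3% DMSO final. Viability read by CellTiter-Glo luminescence after 5 days; GI50 from sigmoidal dose-response fit, mean of at least two replicates.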
row,GI50 [nM],SMILES
1,< 50,"CCn1cc(-c2cc(Cn3ccnc3C)cc3c2CCN([C@H](c2cc(OC)ccn2)C2CC2)C3=O)c(C(F)(F)F)n1 [Example 206, (S)-2-(cyclopropyl(4-methoxypyridin-2-yl)methyl)-5-(1-ethyl-3-(trifluoromethyl)-1H-pyrazol-4-yl)-7-((2-methyl-1H-imidazol-1-yl)methyl)-3,4-dihydroisoquinolin-1(2H)-one]"
2,75,"Cc1nccn1Cc1cc2c(c(-c3cn(C)nc3C(F)(F)F)c1)CCN(Cc1cccc(Br)c1)C2=O [Example 207, 2-(3-Bromobenzyl)-7-((2-methyl-1H-imidazol-1-yl)methyl)-5-(1-methyl-3-(trifluoromethyl)-1H-pyrazol-4-yl)-3,4-dihydroisoquinolin-1(2H)-one]"
3,251,"Cc1cc(CN2CCc3c(cc(Cn4ccnc4C)cc3-c3cn(C)nc3C(F)(F)F)C2=O)ccn1 [Example 208, 7-((2-Methyl-1H-imidazol-1-yl)methyl)-5-(1-methyl-3-(trifluoromethyl)-1H-pyrazol-4-yl)-2-((2-methylpyridin-4-yl)methyl)-3,4-dihydroisoquinolin-1(2H)-one]"
4,85,"Cc1cccc(CN2CCc3c(cc(Cn4ccnc4C)cc3-c3cn(C)nc3C(F)(F)F)C2=O)c1 [Example 209, 7-((2-Methyl-1H-imidazol-1-yl)methyl)-5-(1-methyl-3-(trifluoromethyl)-1H-pyrazol-4-yl)-2-(3-methylbenzyl)-3,4-dihydroisoquinolin-1(2H)-one]"
5,148,"CCc1cccc(CN2CCc3c(cc(Cn4ccnc4C)cc3-c3cn(C)nc3C(F)(F)F)C2=O)c1 [Example 210, 2-(3-Ethylbenzyl)-7-((2-methyl-1H-imidazol-1-yl)methyl)-5-(1-methyl-3-(trifluoromethyl)-1H-pyrazol-4-yl)-3,4-dihydroisoquinolin-1(2H)-one]"
6,84,"COc1ccnc([C@H](C2CC2)N2CCc3c(cc(Cn4ccnc4)cc3-c3cn(C)nc3C)C2=O)c1 [Example 211, (S)-7-((1H-Imidazol-1-yl)methyl)-2-(cyclopropyl(4-methoxypyridin-2-yl)methyl)-5-(1,3-dimethyl-1H-pyrazol-4-yl)-3,4-dihydroisoquinolin-1(2H)-one]"
7,< 50,"CCn1cc(-c2cc(Cn3ccnc3)cc3c2CCN([C@H](c2cc(OC)ccn2)C2CC2)C3=O)c(C(F)(F)F)n1 [Example 212, (S)-7-((1H-Imidazol-1-yl)methyl)-2-(cyclopropyl(4-methoxypyridin-2-yl)methyl)-5-(1-ethyl-3-(trifluoromethyl)-1H-pyrazol-4-yl)-3,4-dihydroisoquinolin-1(2H)-one]"
8,< 50,"Cc1cc(CN2CCc3c(cc(Cn4ccnc4C)cc3-c3cn(C)nc3C(F)(F)F)C2=O)cnc1Cl [Example 213, 2-((6-Chloro-5-methylpyridin-3-yl)methyl)-7-((2-methyl-1H-imidazol-1-yl)methyl)-5-(1-methyl-3-(trifluoromethyl)-1H-pyrazol-4-yl)-3,4-dihydroisoquinolin-1(2H)-one]"
9,168,"CCc1ccc(OCC(=O)NCc2cccnc2)c(CN2CCc3c(cc(Cn4ccnc4C)cc3-c3cn(C)nc3C(F)(F)F)C2=O)c1 [Example 215, 2-(4-Ethyl-2-((7-((2-methyl-1H-imidazol-1-yl)methyl)-5-(1-methyl-3-(trifluoromethyl)-1H-pyrazol-4-yl)-1-oxo-3,4-dihydroisoquinolin-2(19)-yl)methyl)phenoxy)-N-(pyridin-3-ylmethyl)acetamide]"
10,56,"Cc1nccn1Cc1cc2c(c(-c3cn(C)nc3C(F)(F)F)c1)CCN(Cc1cc(Br)cc3c1OCC3)C2=O [Example 216, 2-((5-Bromo-2,3-dihydrobenzofuran-7-yl)methyl)-7-((2-methyl-1H-imidazol-1-yl)methyl)-5-(1-methyl-3-(trifluoromethyl)-1H-pyrazol-4-yl)-3,4-dihydroisoquinolin-1(2H)-one]"
11,149,"CCc1ccc(OC)c(CN2CCc3c(cc(Cn4ccnc4C)cc3-c3cn(C)nc3C(F)(F)F)C2=O)c1 [Example 217, 2-(5-Ethyl-2-methoxybenzyl)-7-((2-methyl-1H-imidazol-1-yl)methyl)-5-(1-methyl-3-(trifluoromethyl)-1H-pyrazol-4-yl)-3,4-dihydroisoquinolin-1(2H)-one]"
12,< 50,"Cc1cc2c(c(CN3CCc4c(cc(Cn5ccnc5C)cc4-c4cn(C)nc4C(F)(F)F)C3=O)c1)OCC2 [Example 218, 7-((2-Methyl-1H-imidazol-1-yl)methyl)-2-((5-methyl-2,3-dihydrobenzofuran-7-yl)methyl)-5-(1-methyl-3-(trifluoromethyl)-1H-pyrazol-4-yl)-3,4-dihydroisoquinolin-1(2H)-one]"
13,1940,"Cc1ccc2[nH]ncc2c1-c1cc(CN2CCc3c(cc(Cn4ccnc4C)cc3-c3cn(C)nc3C(F)(F)F)C2=O)cc(OC(F)(F)F)c1 [Example 220, 7-((2-Methyl-1H-imidazol-1-yl)methyl)-2-(3-(5-methyl-1H-indazol-4-yl)-5-(trifluoromethoxy)benzyl)-5-(1-methyl-3-(trifluoromethyl)-1H-pyrazol-4-yl)-3,4-dihydroisoquinolin-1(2H)-one]"
14,421,"Cc1nccn1Cc1cc2c(c(-c3cn(C)nc3C(F)(F)F)c1)CCN(Cc1cccc(C(F)(F)F)c1)C2=O [Example 221, 7-((2-Methyl-1H-imidazol-1-yl)methyl)-5-(1-methyl-3-(trifluoromethyl)-1H-pyrazol-4-yl)-2-(3-(trifluoromethyl)benzyl)-3,4-dihydroisoquinolin-1(2H)-one]"
15,< 50,"Cc1cnc(Cl)c(CN2CCc3c(cc(Cn4ccnc4C)cc3-c3cn(C)nc3C(F)(F)F)C2=O)c1 [Example 223, 2-((2-Chloro-5-methylpyridin-3-yl)methyl)-7-((2-methyl-1H-imidazol-1-yl)methyl)-5-(1-methyl-3-(trifluoromethyl)-1H-pyrazol-4-yl)-3,4-dihydroisoquinolin-1(2H)-one]"
16,72,"COc1ccnc([C@H](C)N2CCc3c(cc(Cn4ccnc4C)cc3-c3ccncc3C)C2=O)c1 [Example 224, (S)-2-(1-(4-Methoxypyridin-2-yl)ethyl)-7-((2-methyl-1H-imidazol-1-yl)methyl)-5-(3-methylpyridin-4-yl)-3,4-dihydroisoquinolin-1(2H)-one]"
17,195,"Cc1nccn1Cc1cc2c(c(-c3cn(C)nc3C(F)(F)F)c1)CCN(Cc1cc(Cl)cc3ccccc13)C2=O [Example 225, 2-((3-Chloronaphthalen-1-yl)methyl)-7-((2-methyl-1H-imidazol-1-yl)methyl)-5-(1-methyl-3-(trifluoromethyl)-1H-pyrazol-4-yl)-3,4-dihydroisoquinolin-1(2H)-one]"
18,950,"Cc1nccn1Cc1cc2c(c(-c3cn(C)nc3C(F)(F)F)c1)CCN(Cc1cccc(Cl)c1)C2=O [Example 226, 2-(3-Chlorobenzyl)-7-((2-methyl-1H-imidazol-1-yl)methyl)-5-(1-methyl-3-(trifluoromethyl)-1H-pyrazol-4-yl)-3,4-dihydroisoquinolin-1(2H)-one]"
19,7450,COc1cc(CN2CCc3c(cc(Cn4cnc5ccccc54)cc3-c3ccc(F)cc3C)C2=O)cc(OC)c1 [Example 227]
20,< 50,"COc1cncc(CN2CCc3c(cc(Cn4ccnc4C)cc3-c3cn(C)nc3C(F)(F)F)C2=O)c1 [Example 228, 2-((5-Methoxypyridin-3-yl)methyl)-7-((2-methyl-1H-imidazol-1-yl)methyl)-5-(1-methyl-3-(trifluoromethyl)-1H-pyrazol-4-yl)-3,4-dihydroisoquinolin-1(2H)-one]"
21,1050,"COc1ccnc(CN2CCc3c(cc(Cn4ccnc4C)cc3-c3cc(F)cnc3C)C2=O)c1 [Example 229, 5-(5-Fluoro-2-methylpyridin-3-yl)-2-((4-methoxypyridin-2-yl)methyl)-7-((2-methyl-1H-imidazol-1-yl)methyl)-3,4-dihydroisoquinolin-1(2H)-one]"
22,< 50,"CCn1cc(-c2cc(Cc3ncc[nH]3)cc3c2CCN([C@@H](C)c2cc(OC)ccn2)C3=O)c(C(F)(F)F)n1 [Example 230, (S)-7-((1H-Imidazol-2-yl)methyl)-5-(1-ethyl-3-(trifluoromethyl)-1H-pyrazol-4-yl)-2-(1-(4-methoxypyridin-2-yl)ethyl)-3,4-dihydroisoquinolin-1(2H)-one]"
23,550,"Cc1nccn1Cc1cc2c(c(-c3cn(C)nc3C(F)(F)F)c1)CCN(Cc1cccc(-c3ccsc3)c1)C2=O [Example 231, 7-((2-Methyl-1H-imidazol-1-yl)methyl)-5-(1-methyl-3-(trifluoromethyl)-1H-pyrazol-4-yl)-2-(3-(thiophen-3-yl)benzyl)-3,4-dihydroisoquinolin-1(2H)-one]"
24,199,"Cc1cnnc(CN2CCc3c(cc(Cn4ccnc4C)cc3-c3cn(C)nc3C(F)(F)F)C2=O)c1 [Example 232, 7-((2-Methyl-1H-imidazol-1-yl)methyl)-5-(1-methyl-3-(trifluoromethyl)-1H-pyrazol-4-yl)-2-((5-methylpyridazin-3-yl)methyl)-3,4-dihydroisoquinolin-1(2H)-one]"
25,748,"Cc1nccn1Cc1cc2c(c(-c3cn(C)nc3C(F)(F)F)c1)CCN(Cc1ccccc1)C2=O [Example 233, 2-Benzyl-7-((2-methyl-1H-imidazol-1-yl)methyl)-5-(1-methyl-3-(trifluoromethyl)-1H-pyrazol-4-yl)-3,4-dihydroisoquinolin-1(2H)-one]"
26,283,"Cc1nccn1Cc1cc2c(c(-c3cn(C)nc3C(F)(F)F)c1)CCN(Cc1cccc(C3CC3)c1)C2=O [Example 234, 2-(3-Cyclopropylbenzyl)-7-((2-methyl-1H-imidazol-1-yl)methyl)-5-(1-methyl-3-(trifluoromethyl)-1H-pyrazol-4-yl)-3,4-dihydroisoquinolin-1(2H)-one]"
27,199,"C=Cc1cccc(CN2CCc3c(cc(Cn4ccnc4C)cc3-c3cn(C)nc3C(F)(F)F)C2=O)c1 [Example 235, 7-((2-Methyl-1H-imidazol-1-yl)methyl)-5-(1-methyl-3-(trifluoromethyl)-1H-pyrazol-4-yl)-2-(3-vinylbenzyl)-3,4-dihydroisoquinolin-1(2H)-one]"
